Experimental data published in patent US20100183684A1, “Oral vaccination” (Bio Life Science, priority 2002, published 2010).
Structures can show the parent of a compound that is named as a salt.

Tested on: caviar extract
Experiment: Antibody induction against orally fed caviar extract in mice, measured by ELISA
Format: in vivo
Settings: Balb/c mice, gastric acid reducing agent with 2 mg caviar protein extract orally, fed simultaneously or with a time delay, not against daily diet; for induction of IgE antibodies against caviar extract: ELISA OD 405/450 nm
Experimental: Four groups (A to D) with five Balb/c mice each were treated in the following way: • Group A: Oral administration of Zantac (ULSAL®, active agent: 20 microg ranitidine per mouse, single dose per mouse one hour before feeding […] with antigen) and antigen (2 mg caviar protein extract per mouse), • Group B: Oral administration of a mixture of Ulcogant (active agent: 2 mg sucralfate per mouse) and antigen (2 mg caviar protein extract per mouse), • Group C: Comparative example with intraperitoneal administration of caviar antigen (2 mg) and aluminum hydroxide as an adjuvant, • Group D: Comparative example with oral administration of antigen (2 mg).
The antigen used was caviar extract. As a reference regarding the caviar extract used, the publication by Untersmayr E, Schöll I, Förster-Waldl E, Walter F, Riemer A, Boltz-Nitulescu G, Scheiner O, Jensen-Jarolim E. J Allergy and Immun. 2002; 109 (6): 1034-5 is cited. The antigen contained therein has a molecular weight of 118 kDa.
The obtained results are rendered in FIG. 1. […] Groups A and B were given the antigen in conjunction with a gastric acid reducing agent orally according to the invention, while for comparison purposes group C was immunized according to a standard scheme for IgE induction, and group D was given the antigen orally without gastric acid reducing agent.

Row | Compound | induction of IgE antibodies against caviar extract | induction of IgG antibodies against caviar extract
1 | CNC(=C[N+](=O)[O-])NCCSCc1ccc(CN(C)C)o1 [Zantac, ranitidine hydrochloride] | lasting induction | lasting induction
2 | aluminum sucrose hydrogen sulfate [Ulcogant] | lasting induction | lasting induction
